Test results published in ChEMBL document CHEMBL3885861, “Open TG-GATES”.

Species on record: Rattus norvegicus
Test: Open TG-GATES - Regimen: Daily Repeat
Type: toxicity, organism-based, Sprague-Dawley
Parameters: regimen Daily Repeat, gender Male, age 6 weeks
Conditions: in vivo, iv, route intravenous injection; for APTT / Bas / Eos / Fbg / Hb / Ht / Lym / MCH / MCHC / MCV / Mono / Neu / PT / Plat / RBC / Ret / WBC: tissue Blood; for KIDNEY_L / KIDNEY_R / KIDNEY_TOTAL: tissue Kidney; for LIVER: tissue Liver; for ALP / ALT / AST / BUN / CRE / Ca / Cl / DBIL / GLC / IP / K / LDH / Na / PL / RALB / TBIL / TC / TG / TP / gamma-GTP: tissue Plasma
[1] = 1000 mg/kg, 72 h, dose level Middle, time 3 day
[2] = 1000 mg/kg, […], dose level Middle, time 7 day
[3] = 1000 mg/kg, […], dose level Middle, time 14 day
[4] = 1000 mg/kg, […], dose level Middle, time 28 day
[5] = 2000 mg/kg, 72 h, dose level High, time 3 day
[6] = 2000 mg/kg, […], dose level High, time 7 day
[7] = 2000 mg/kg, […], dose level High, time 14 day
[8] = 2000 mg/kg, […], dose level High, time 28 day

CC(=O)OCC1=C(C(=O)O)N2C(=O)[C@@H](NC(=O)Cc3cccs3)[C@H]2SC1 [CEPHALOTHIN]
TERMINAL_BW [1]: 236.8 g
APTT [1]: 22.6 s
Bas [1]: 0%
Eos [1]: 1%
Fbg [1]: 308.4 mg/dL
Hb [1]: 13.4 g/dL
Ht [1]: 38.7%
Lym [1]: 87.2%
MCH [1]: 21.3 pg
MCHC [1]: 34.7%
MCV [1]: 61.6 fL
Mono [1]: 2.6%
Neu [1]: 8.2%
PT [1]: 16 s
Plat [1]: 120.2 x10_4/uL
RBC [1]: 630.2 x10_4/ul
Ret [1]: 5%
WBC [1]: 80.1 x10_2/uL
KIDNEY_L [1]: 1 g
KIDNEY_R [1]: 1 g
KIDNEY_TOTAL [1]: 2 g
LIVER [1]: 10.2 g
ALP [1]: 1638.6 IU/L
ALT [1]: 44.6 IU/L
AST [1]: 71.2 IU/L
BUN [1]: 18 mg/dL
CRE [1]: 0.2 mg/dL
Ca [1]: 10.6 mg/dL
Cl [1]: 105.2 meq/L
DBIL [1]: 0 mg/dL
GLC [1]: 160 mg/dL
IP [1]: 7.1 mg/dL
K [1]: 4.5 meq/L
LDH [1]: 147.8 IU/L
Na [1]: 141.2 meq/L
PL [1]: 141.6 mg/dL
RALB [1]: 3 g/dL
TBIL [1]: 0.008 mg/dL
TC [1]: 85.2 mg/dL
TG [1]: 65.8 mg/dL
TP [1]: 5.5 g/dL
gamma-GTP [1]: 1.4 IU/L
TERMINAL_BW [2]: 261.5 g
TERMINAL_BW [3]: 302.8 g
TERMINAL_BW [4]: 376.7 g
APTT [2]: 21.6 s
Bas [2]: 0%
Eos [2]: 1.2%
Fbg [2]: 323 mg/dL
Hb [2]: 13.2 g/dL
Ht [2]: 38%
Lym [2]: 87.2%
MCH [2]: 20.7 pg
MCHC [2]: 34.8%
MCV [2]: 59.3 fL
Mono [2]: 2.2%
Neu [2]: 9%
PT [2]: 17 s
Plat [2]: 135.9 x10_4/uL
RBC [2]: 640.6 x10_4/ul
Ret [2]: 5.5%
WBC [2]: 90.6 x10_2/uL
APTT [3]: 23.4 s
Bas [3]: 0%
Eos [3]: 0.8%
Fbg [3]: 260.8 mg/dL
Hb [3]: 13.9 g/dL
Ht [3]: 39%
Lym [3]: 89.2%
MCH [3]: 20.2 pg
MCHC [3]: 35.6%
MCV [3]: 56.6 fL
Mono [3]: 2.2%
Neu [3]: 6.8%
PT [3]: 16.2 s
Plat [3]: 123.9 x10_4/uL
RBC [3]: 689.8 x10_4/ul
Ret [3]: 5%
WBC [3]: 109.6 x10_2/uL
APTT [4]: 24.8 s
Bas [4]: 0%
Eos [4]: 1.4%
Fbg [4]: 294.4 mg/dL
Hb [4]: 14.9 g/dL
Ht [4]: 40.5%
Lym [4]: 88.2%
MCH [4]: 19.6 pg
MCHC [4]: 36.8%
MCV [4]: 53.1 fL
Mono [4]: 1.8%
Neu [4]: 7.6%
PT [4]: 16.2 s
Plat [4]: 113.8 x10_4/uL
RBC [4]: 762.8 x10_4/ul
Ret [4]: 2.8%
WBC [4]: 98 x10_2/uL
KIDNEY_L [2]: 1.1 g
KIDNEY_R [2]: 1.1 g
KIDNEY_TOTAL [2]: 2.3 g
KIDNEY_L [3]: 1.2 g
KIDNEY_R [3]: 1.3 g
KIDNEY_TOTAL [3]: 2.5 g
KIDNEY_L [4]: 1.4 g
KIDNEY_R [4]: 1.4 g
KIDNEY_TOTAL [4]: 2.8 g
LIVER [2]: 12.2 g
LIVER [3]: 12.7 g
LIVER [4]: 14.6 g
ALP [2]: 1283 IU/L
ALT [2]: 35.4 IU/L
AST [2]: 64.4 IU/L
BUN [2]: 16.2 mg/dL
CRE [2]: 0.2 mg/dL
Ca [2]: 11 mg/dL
Cl [2]: 105.4 meq/L
DBIL [2]: 0.002 mg/dL
GLC [2]: 171.8 mg/dL
IP [2]: 7.3 mg/dL
K [2]: 4.2 meq/L
LDH [2]: 148.4 IU/L
Na [2]: 141.6 meq/L
PL [2]: 134.6 mg/dL
RALB [2]: 3 g/dL
TBIL [2]: 0.02 mg/dL
TC [2]: 70.4 mg/dL
TG [2]: 94.6 mg/dL
TP [2]: 5.6 g/dL
gamma-GTP [2]: 1.8 IU/L
ALP [3]: 1231.6 IU/L
ALT [3]: 35.2 IU/L
AST [3]: 66.4 IU/L
BUN [3]: 15.6 mg/dL
CRE [3]: 0.2 mg/dL
Ca [3]: 10.5 mg/dL
Cl [3]: 106 meq/L
DBIL [3]: 0 mg/dL
GLC [3]: 170.2 mg/dL
IP [3]: 6.7 mg/dL
K [3]: 4.2 meq/L
LDH [3]: 96.2 IU/L
Na [3]: 140.6 meq/L
PL [3]: 143 mg/dL
RALB [3]: 3 g/dL
TBIL [3]: 0.01 mg/dL
TC [3]: 73.6 mg/dL
TG [3]: 109.8 mg/dL
TP [3]: 5.6 g/dL
gamma-GTP [3]: 2.4 IU/L
ALP [4]: 1075.4 IU/L
ALT [4]: 31 IU/L
AST [4]: 62 IU/L
BUN [4]: 16.6 mg/dL
CRE [4]: 0.2 mg/dL
Ca [4]: 10.4 mg/dL
Cl [4]: 106.6 meq/L
DBIL [4]: 0.004 mg/dL
GLC [4]: 175.4 mg/dL
IP [4]: 5.9 mg/dL
K [4]: 4.2 meq/L
LDH [4]: 148 IU/L
Na [4]: 142.4 meq/L
PL [4]: 135.4 mg/dL
RALB [4]: 3.1 g/dL
TBIL [4]: 0.018 mg/dL
TC [4]: 67.6 mg/dL
TG [4]: 116.4 mg/dL
TP [4]: 5.9 g/dL
gamma-GTP [4]: 1.2 IU/L
TERMINAL_BW [5]: 233 g
APTT [5]: 22.3 s
Bas [5]: 0%
Eos [5]: 1.2%
Fbg [5]: 311.4 mg/dL
Hb [5]: 13.7 g/dL
Ht [5]: 38.7%
Lym [5]: 87.2%
MCH [5]: 21.3 pg
MCHC [5]: 35.3%
MCV [5]: 60.3 fL
Mono [5]: 2.2%
Neu [5]: 9%
PT [5]: 16.2 s
Plat [5]: 128.7 x10_4/uL
RBC [5]: 642 x10_4/ul
Ret [5]: 4.9%
WBC [5]: 71.5 x10_2/uL
KIDNEY_L [5]: 1 g
KIDNEY_R [5]: 1 g
KIDNEY_TOTAL [5]: 2.1 g
LIVER [5]: 10.2 g
ALP [5]: 1558.6 IU/L
ALT [5]: 43 IU/L
AST [5]: 72.2 IU/L
BUN [5]: 17.6 mg/dL
CRE [5]: 0.2 mg/dL
Ca [5]: 10.4 mg/dL
Cl [5]: 106 meq/L
DBIL [5]: 0.004 mg/dL
GLC [5]: 173.6 mg/dL
IP [5]: 7.5 mg/dL
K [5]: 4.4 meq/L
LDH [5]: 152.4 IU/L
Na [5]: 141.6 meq/L
PL [5]: 132.8 mg/dL
RALB [5]: 3.1 g/dL
TBIL [5]: 0.03 mg/dL
TC [5]: 80.6 mg/dL
TG [5]: 40.4 mg/dL
TP [5]: 5.5 g/dL
gamma-GTP [5]: 1.8 IU/L
TERMINAL_BW [6]: 255 g
TERMINAL_BW [7]: 294.7 g
TERMINAL_BW [8]: 341.3 g
APTT [6]: 22.8 s
Bas [6]: 0%
Eos [6]: 0.8%
Fbg [6]: 347.2 mg/dL
Hb [6]: 13.4 g/dL
Ht [6]: 38.1%
Lym [6]: 83.8%
MCH [6]: 20.8 pg
MCHC [6]: 35.1%
MCV [6]: 59.4 fL
Mono [6]: 2.4%
Neu [6]: 12.4%
PT [6]: 16.7 s
Plat [6]: 132.5 x10_4/uL
RBC [6]: 642.8 x10_4/ul
Ret [6]: 6.3%
WBC [6]: 96.8 x10_2/uL
APTT [7]: 23.6 s
Bas [7]: 0%
Eos [7]: 1%
Fbg [7]: 269.2 mg/dL
Hb [7]: 14.4 g/dL
Ht [7]: 40.1%
Lym [7]: 84.6%
MCH [7]: 20.7 pg
MCHC [7]: 35.9%
MCV [7]: 57.5 fL
Mono [7]: 2%
Neu [7]: 12%
PT [7]: 16 s
Plat [7]: 117.3 x10_4/uL
RBC [7]: 695.2 x10_4/ul
Ret [7]: 5%
WBC [7]: 118.2 x10_2/uL
APTT [8]: 24.6 s
Bas [8]: 0%
Eos [8]: 1.6%
Fbg [8]: 283.8 mg/dL
Hb [8]: 15.6 g/dL
Ht [8]: 42.2%
Lym [8]: 84.8%
MCH [8]: 19.6 pg
MCHC [8]: 37%
MCV [8]: 52.9 fL
Mono [8]: 2.4%
Neu [8]: 10.8%
PT [8]: 16.1 s
Plat [8]: 100.5 x10_4/uL
RBC [8]: 797.8 x10_4/ul
Ret [8]: 3.2%
WBC [8]: 103.9 x10_2/uL
KIDNEY_L [6]: 1.1 g
KIDNEY_R [6]: 1.1 g
KIDNEY_TOTAL [6]: 2.2 g
KIDNEY_L [7]: 1.2 g
KIDNEY_R [7]: 1.2 g
KIDNEY_TOTAL [7]: 2.4 g
KIDNEY_L [8]: 1.4 g
KIDNEY_R [8]: 1.4 g
KIDNEY_TOTAL [8]: 2.7 g
LIVER [6]: 12 g
LIVER [7]: 12.9 g
LIVER [8]: 13.8 g
ALP [6]: 1549.6 IU/L
ALT [6]: 42.4 IU/L
AST [6]: 71.2 IU/L
BUN [6]: 19.6 mg/dL
CRE [6]: 0.2 mg/dL
Ca [6]: 10.8 mg/dL
Cl [6]: 107.6 meq/L
DBIL [6]: 0 mg/dL
GLC [6]: 169.2 mg/dL
IP [6]: 7 mg/dL
K [6]: 4.5 meq/L
LDH [6]: 152.8 IU/L
Na [6]: 141.6 meq/L
PL [6]: 138.6 mg/dL
RALB [6]: 3 g/dL
TBIL [6]: 0.008 mg/dL
TC [6]: 69.8 mg/dL
TG [6]: 103.2 mg/dL
TP [6]: 5.6 g/dL
gamma-GTP [6]: 2 IU/L
ALP [7]: 1210 IU/L
ALT [7]: 40.6 IU/L
AST [7]: 72 IU/L
BUN [7]: 18.6 mg/dL
CRE [7]: 0.2 mg/dL
Ca [7]: 10.6 mg/dL
Cl [7]: 106.2 meq/L
DBIL [7]: 0 mg/dL
GLC [7]: 176.8 mg/dL
IP [7]: 6.3 mg/dL
K [7]: 4.3 meq/L
LDH [7]: 142.8 IU/L
Na [7]: 141.4 meq/L
PL [7]: 142.4 mg/dL
RALB [7]: 3.1 g/dL
TBIL [7]: 0.018 mg/dL
TC [7]: 73.6 mg/dL
TG [7]: 110.2 mg/dL
TP [7]: 5.8 g/dL
gamma-GTP [7]: 2.4 IU/L
ALP [8]: 899.6 IU/L
ALT [8]: 38 IU/L
AST [8]: 69.2 IU/L
BUN [8]: 16 mg/dL
CRE [8]: 0.2 mg/dL
Ca [8]: 10.4 mg/dL
Cl [8]: 106.2 meq/L
DBIL [8]: 0.002 mg/dL
GLC [8]: 166.8 mg/dL
IP [8]: 5.6 mg/dL
K [8]: 4.1 meq/L
LDH [8]: 105.2 IU/L
Na [8]: 142.6 meq/L
PL [8]: 129.8 mg/dL
RALB [8]: 3.2 g/dL
TBIL [8]: 0.034 mg/dL
TC [8]: 62.4 mg/dL
TG [8]: 93.8 mg/dL
TP [8]: 6.1 g/dL
gamma-GTP [8]: 1.8 IU/L
